As usually defined, the GI50 is the concentration giving 50% growth inhibition.

What all share (assay): DTP human tumour cell line panel, 48 h
In assay [1] the test system is ACHN.
Assay [2] has as its system CAKI-1.
Assay [3] deals with DU-145.
Assay [4] concerns HCC 2998.
The test system of assay [5] is HCT-116.
Assay [6] concerns HOP-62.
For assay [7], the system named is HOP-92.
Assay [8] concerns HT-29.
Assay [9] has as its system KM12.
Assay [10] deals with LOX IMVI.
The test system of assay [11] is M19-MEL.
Assay [12] has as its system MDA-MB-231.
For assay [13], the system named is MOLT-4.
In assay [14] the test system is Malme-3M.
In assay [15] the test system is NCI-H226.
The test system of assay [16] is NCI-H522.
Assay [17] concerns OVCAR-4.
In assay [18] the test system is OVCAR-8.
Assay [19] relates to SK-MEL-28.
Assay [20] deals with SK-OV-3.

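Five compound concentrations were applied to cells in 96-well plates for 48 hours; endpoints were derived by simple linear interpolation of the resulting dose-response curve. Abbreviation: GI50, concentration required for 50% inhibition of growth.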 Activity calls are given as the source filed them. No stated cut-off is given here; in the data, active = GI50 up to about 1.1 µM and inactive = higher.

With `CCOC(=O)C(Cc1cc(OC)c(CC(C(=O)OCC)C(=O)OCC)cc1OC)C(=O)OCC`, the GI50 in assay [1] was > 100 µM (inactive); in [2], > 100 µM (inactive); in [3], > 100 µM (inactive); in assay [4], > 100 µM (inactive); in [5], > 100 µM (inactive); in assay [6] it was > 59.3 µM (inactive). Besides, the GI50 in [7] was 26.9 µM (inactive); in assay [8], > 100 µM (inactive); in assay [9] it was > 100 µM (inactive); in assay [10], > 100 µM (inactive); in assay [11], > 100 µM (inactive); in assay [12] it was 44.9 µM (inactive). Also, the GI50 in assay [13] was > 100 µM (inactive); in assay [14] it was > 100 µM (inactive); in assay [15], > 91.4 µM (inactive); in [16] it was > 100 µM (inactive); in assay [17], > 100 µM (inactive); in [18], > 81.1 µM (inactive). Moreover, the GI50 in [19] is > 100 µM (inactive); in [20], > 93.8 µM (inactive).

Take `CC1OC(CC(=O)O)CC2=C1C(=O)c1c(O)cccc1C2=O` (stereo unspecified) [NANAOMYCIN]: the GI50 is 0.229 µM (active) in assay [1]; 0.0955 µM (active) in assay [2]; 1.12 µM (inactive) in assay [3]; 0.468 µM (active) in [4]; 0.0499 µM (active) in [5]; 1.55 µM (inactive) in [6]. Besides, the GI50 in assay [7] was 0.125 µM (active); in [8], 0.0624 µM (active); in assay [9], 1.27 µM (inactive); in assay [10] it was 0.0421 µM (active); in assay [11] it was 0.0845 µM (active); in assay [12] it was 0.218 µM (active). For the same compound, the GI50 in assay [13] is 0.0309 µM (active); in [14] it was 0.203 µM (active); in assay [15], 0.977 µM (active); in assay [16], 0.0278 µM (active); in [17], 0.274 µM (active); in assay [18] it was 0.128 µM (active). In addition, the GI50 is 0.063 µM (active) in assay [19] and 4 µM (inactive) in [20].

As to `CC1=C(C(=O)Nc2ccc([N+](=O)[O-])cc2)C(c2ccccc2F)C(C(=O)Nc2ccc([N+](=O)[O-])cc2)=C(C)N1`, the GI50 in assay [1] was 4.21 µM (inactive); in assay [2], 18.2 µM (inactive); in [4], 5.94 µM (inactive); in assay [5], 5.13 µM (inactive); in [6] it was 15 µM (inactive); in assay [7], 4.45 µM (inactive). In addition, the GI50 was 20.1 µM (inactive) in [8]; 9.14 µM (inactive) in assay [9]; 11 µM (inactive) in assay [10]; 14.2 µM (inactive) in [11]; 3.61 µM (inactive) in assay [13]; 13.7 µM (inactive) in assay [14]. Besides, the GI50 in assay [15] is 14 µM (inactive); in assay [16] it was 8.2 µM (inactive); in assay [17] it was 9.14 µM (inactive); in [18], 21.7 µM (inactive); in [19], 20.7 µM (inactive); in [20], 29.8 µM (inactive).

As for `CC(=O)C1C(=O)C(=O)N(c2ccccc2C(C)C)C1=O` (stereo unspecified), the GI50 in [1], in assay [2], in assay [4], in assay [5], in assay [6] and in assay [7] was > 100 µM (inactive) in each case. Moreover, the GI50 in assay [8], in assay [9], in [10], in [11], in assay [13] and in [14] was > 100 µM (inactive) in each case. Also, the GI50 in assay [15], in assay [16], in assay [17], in assay [18], in [19] and in [20] was > 100 µM (inactive) throughout.

The record behind these values is ChEMBL document CHEMBL1201862, “PubChem BioAssay data set” (2004).
